The text below walks through data of article PMC6225474, “Polypyridyl Zinc(II)-Indomethacin Complexes with Potent Anti-Breast Cancer Stem Cell Activity” (Molecules : A Journal of Synthetic Chemistry and Natural …, 2018).

Where two headings read alike, the source gives them in different places.

The test system of series [1] is HMLER-shEcad cells. Description: MTT assay, breast CSC-like cells (HMLER-shEcad). It counts as cell-based, human. The following applies: 72 h incubation. On the procedure: (§1) HEK 293T human embryonic kidney cells purchased from American Type Culture Collection (ATCC, Manassas, VA, USA) were grown in DMEM (Dulbecco’s Modified Eagle’s Medium) with FBS (fetal bovine serum, 10%), and penicillin/streptomycin (1%). Human mammary epithelial CSC-depleted HMLER and human mammary epithelial CSC-enriched HMLER-shEcad cells were obtained from Prof. R.A. Weinberg (Whitehead Institute, MIT). These cells were grown in MEGM (Mammary Epithelial Cell Growth Medium) with BPE, hydrocortisone, hEGF, insulin, and gentamicin/amphotericin-B. All of the cells used in this study were cultured at 37 °C within a humidified incubator with a CO2 controller to maintin CO2 levels at 5%.
(§2) On day 1, 5000 cells (of the appropriate cell line) were plated in each well of a 96-well plate. The cells were then left to attach to the bottom of the wells overnight. On day 2, the compounds of interest were added (at different concentrations, 0.2–100 μM). The cells were incubated with the compounds for 72 h. The volume of each well at this stage was 200 μL. If DMSO was used to aid solubilization of the compounds, then the same amount of DMSO was also present in control wells. […] The absorption of each well was measured using a plate reader at 550 nm. […]

The subject of series [2] is HMLER-shEcad mammospheres. Description: Mammosphere viability assay (TOX8). It counts as cell-based, human. The following applies: TOX8, 5 days (120 h) incubation. The method, then:
(§3) On day 1, 5000 HMLER-shEcad cells were seeded into each well of a 96-well ultralow-attachment plate. The culture media used was MEGM with B27 (Invitrogen), 20 ng/mL EGF, and 4 μg/mL heparin (Sigma). Compounds of interest were added to the HMLER-shEcad cells at various concentrations (0–133 μM), and the suspensions were incubated for 5 days. On day 6, the mammospheres were imaged and counted using a standard microscope. Afterwhich, TOX8 (Sigma) (20 µL) was added to each well and incubated for 16 h. On day 7, the solutions in each well were transferred to a black 96-well plate and the fluorescence was measured using a plate reader, 590 nm (λex = 560 nm). The arbitrary fluorescence values were normalised with respect to control wells (containing DMSO), and dose–response curves were plotted to determine the IC50 values. Three independent experiments were carried out, with each concentration having three repeats […].

The nature of series [3]: LogP by shake-flask method with UV-Vis spectroscopy. It counts as physicochemical. As to conditions: octanol/water, 100 µM, shaken 24 h, room temperature. The method, then: The shake-flask method in combination with UV-Vis spectroscopy was used to determine the LogP values of 2–5. Briefly, to a suspension of water (500 μL) and octanol (500 μL), 2–5 was added, giving a final concentration of 100 µM. The mixture was shaken for 24 h (room temperature). Using centrifugation, the water and octanol layers were separated and the concentration of 2–5 in each layer was determined using UV-Vis spectroscopy.

A further series deals with HEK 293T cells. The series can be described thus: MTT assay, human embryonic kidney (HEK 293T) cells. Type of series: cell-based. The following applies: for IC50: MTT, 72 h incubation. On the procedure:
as §1
On day 1, 5000 cells (of the appropriate cell line) were plated in each well of a 96-well plate. The cells were then left to attach to the bottom of the wells overnight. On day 2, the compounds of interest were added (at different concentrations, 0.2–100 μM). The cells were incubated with the compounds for 72 h. The volume of each well at this stage was 200 μL. If DMSO was used to aid solubilization of the compounds, then the same amount of DMSO was also present in control wells. On day 5, a solution of 3-(4,5-dimethylthiazol-2-yl)-2,5-diphenyltetrazolium bromide (MTT) (4 mg/mL) predissolved in PBS was added to each well of the 96-well plate (20 μL). After a further 4 h incubation, the media/MTT solution was removed and the resultant purple formazan crystals were dissolved in DMSO (200 μL). The absorption of each well was measured using a plate reader at 550 nm. The absorption values were normalised according to the control wells and dose—response curves were plotted to determine the IC50 values. Three independent experiments were carried out, with each concentration having six repeats (n = 18).

Series [4] concerns HMLER cells. Description: MTT assay, bulk breast cancer cells (HMLER). Type of series: cell-based, human. As to conditions: 72 h incubation. On the procedure:
as §1, §2
(In general: Formazan colour is commonly taken as a measure of viable cells.)

A short description of series [5]: UV-Vis stability study in MEGM/DMSO. The following applies: 50 µM in MEGM/DMSO (200:1), 24 h at 37 °C. Type of series: physicochemical.
A short description of series [6]: UV-Vis stability study in PBS:DMSO. It counts as physicochemical. The following applies: 50 µM in PBS:DMSO (200:1), 24 h at 37 °C. The text has this:
The shake-flask method was used to determine the lipophilicity (LogP) of 2–5. This involves determining the amount of a given compound partitioned between octanol and water using UV-Vis spectroscopy. […] The size of the polypyridyl ligand has a clear effect on lipophilicity, with LogP values increasing according to the following order; 2 < 3 < 4 < 5. The hydrophobicity of 2–5 implies that the zinc(II) complexes are likely to easily enter cells. […] The metal-perturbed π-π* and metal-to-ligand charge-transfer (MLCT) absorption bands of 2 (50 µM) in PBS:DMSO (200:1) were constant for 24 h at 37 °C (Figure S7), indicative of stability.

In series [7] the test system is HMLER cells. The following applies: MTT, 72 h incubation; cited from earlier work.
In series [8] the test system is HMLER-shEcad cells. The following applies: cited from earlier work; for IC50: MTT, 72 h incubation.
Series [9] has as its system HMLER-shEcad mammospheres. On the set-up: method as in PMID 26865551. The following applies: previous work; cited from earlier work.
The test system of series [10] is HMLER-shEcad mammospheres. The series can be described thus: Mammosphere formation assay (number and size of mammospheres). Type of series: cell-based, human. The following applies: HMLER-shEcad cells in suspension, treated at respective IC20 value for 5 days. The method, then: as §3
The subject of series [11] is HMLER-shEcad mammospheres. The arrangement: method as in PMID 26806362, PMID 27774561, PMID 28932846. The following applies: 120 h incubation, read-out: Mammosphere IC50; cited from earlier work.

As usually defined, the IC50 is the point on the concentration scale where inhibition reaches its midpoint. Usually LogP stands for a log measure of how a compound divides between an organic and an aqueous phase. “Zn(indomethacin)2(1,10-phenanthroline) [Compound 3]”: the IC50 turned out to be 1.1 ± 0.08 µM with HMLER-shEcad cells [1], 44.1 ± 0.6 µM in series [2], 2.3 ± 0.1 µM with HEK 293T cells and 1.1 ± 0.05 µM in the series with HMLER cells [4]. For the same compound, the LogP in series [3] is 0.97.
In the case of “Zn(indomethacin)2(2,2′-bipyridine) [Compound 2]”, the IC50 with HMLER-shEcad cells [1] is 0.7 ± 0.04 µM; in [2] it was over 133 µM; in the series on HEK 293T cells it was 20 ± 3.9 µM; in the series with HMLER cells [4], 1.2 ± 0.02 µM. Further, in [3], the log partition coefficient (LogP) is recorded as 0.89. In the series on HEK 293T cells (ratio of IC50 values, p < 0.05), the “fold less potent toward HEK 293T cells than HMLER and HMLER-shEcad cells” value was “up to 17 fold”. Besides, in series [5], the “stability: UV-Vis absorption bands” value was “unaltered”. In addition, the “stability: metal-perturbed π-π* and MLCT absorption bands” value in series [6] is listed as “constant”.
Consider `N.N.O=C([O-])C1(C(=O)[O-])CCC1.[Pt+2]` [carboplatin], for which the IC50 is 67.3 ± 2.8 µM in the series with HMLER cells [7] and 72.3 ± 7.9 µM in the series on HMLER-shEcad cells [8].
Consider `COc1ccc2c(c1)c(CC(=O)O)c(C)n2C(=O)c1ccc(Cl)cc1` [indomethacin], for which the mammosphere inhibitory effect entry in series [9] was “poor”. Besides, the “toxicity towards CSC-like cells” value in the series on HMLER-shEcad cells [8] (previous work) is given as “non-toxic”.
On to `CC[C@@H](C(=O)[C@@H](C)[C@@H](O)[C@H](C)[C@@H]1O[C@@H]([C@@H](CC)C(=O)O)CC[C@@H]1C)[C@H]1O[C@]2(C=C[C@@H](O)[C@]3(CC[C@@](C)([C@H]4CC[C@](O)(CC)[C@H](C)O4)O3)O2)[C@H](C)C[C@@H]1C` [salinomycin], for which the IC50 in the series on HMLER cells [7] is 11.4 ± 0.4 µM; in series [11], 18.5 ± 1.5 µM; with HMLER-shEcad cells [8] it was 4.2 ± 0.3 µM. Further, in [10], the “decrease in mammospheres formed” value is 37%.
On to `N.N.[Cl][Pt][Cl]` [cisplatin], for which the IC50 in the series on HMLER cells [7] was 3.4 ± 0.5 µM; in the series on HMLER-shEcad cells [8], 4.9 ± 0.4 µM.
